In the Deep4Chem optical property database:
One block for each molecule: values may come before it.

Assay: solvent given as SMILES

- absorption maximum (in ClCCl): 615 nm
Compound: CC(C)[Si](C#Cc1c2cc3ccccc3cc2c(C#C[Si](C(C)C)(C(C)C)C(C)C)c2nc3c4ccccc4c(=O)c4ccccc4c3nc12)(C(C)C)C(C)C

- absorption maximum (in C1CCOC1): 303 nm
Compound: F[Si-](F)(c1ccccc1)(c1ccccc1)c1cc2ccccc2c2ccccc12

- absorption maximum (in CC#N): 578 nm
- absorption maximum (in CCCCCC): 581 nm
- absorption maximum (in CCOC(C)=O): 580 nm
- absorption maximum (in CO): 579 nm
- absorption maximum (in ClCCl): 581 nm
Compound: F[B-]1(F)n2c(NCc3ccccc3)ccc2C(c2c(Cl)cccc2Cl)=C2C=CC(NCc3ccccc3)=[N+]21

- absorption maximum (in CCO): 648 nm
- absorption maximum (in CO): 646 nm
- absorption maximum (in CS(C)=O): 656 nm
- absorption maximum (in O): 641 nm
Compound: CN1/C(=C/C=C(/C=C/c2sc3ccccc3[n+]2C)c2ccc(F)cc2)Sc2ccccc21

- absorption maximum (in ClCCl): 794 nm
Compound: CN(C)c1ccc(C2=[N+]3C(=Nc4c5ccccc5c(-c5ccc(N(C)C)cc5)n4[B-]3(F)F)c3ccccc32)cc1

- absorption maximum (in C1CCCCC1): 421 nm
- absorption maximum (in CC#N): 432 nm
- absorption maximum (in CCO): 433 nm
Compound: COc1ccc2c(c1)C(=O)c1ccccc1-2

- absorption maximum (in ClC(Cl)Cl): 419 nm
Compound: CCC(CC)n1c2ccccc2c2cc3c(cc21)c1ccccc1n3C(CC)CC

- absorption maximum (in C1CCOC1): 376 nm
Compound: CCCCC1(CCCC)c2cc(C#Cc3ccc(C=C(c4ccccc4)c4ccccc4)cc3)ccc2-c2ccc(C#Cc3ccc(C=C(c4ccccc4)c4ccccc4)cc3)cc21

- absorption maximum (in CN(C)C=O): 349 nm
Compound: c1ccc2[nH]c(-c3ccc(-c4ccc(-c5ccc(-c6nc7ccccc7[nH]6)cc5)cc4)cc3)nc2c1

- absorption maximum (in ClCCl): 356 nm
Compound: N#C/C(=C\c1ccc(-c2ccncc2)cc1)c1ccc(-c2ccncc2)cc1

- absorption maximum (in ClCCl): 353 nm
Compound: CCn1c2ccccc2c2cccc(N(c3ccccc3)c3ccccc3)c21

- absorption maximum (in ClCCl): 340 nm
Compound: N#Cc1ccc(-n2c(-c3ccc(-c4ccc(-c5nc6c7ccccc7c7ccccc7c6n5-c5ccc(C#N)c6ccccc56)cc4)cc3)nc3c4ccccc4c4ccccc4c32)c2ccccc12

- absorption maximum (in CS(C)=O): 644 nm
Compound: O=C(O)COc1cccc(-c2c3nc(cc4ccc([nH]4)c(-c4cccc(OCC(=O)O)c4)c4nc(cc5ccc2[nH]5)CC4)C=C3)c1

- absorption maximum (in C1CCCCC1): 295 nm
Compound: CC(C)(C)[Si](C)(C)c1cccc2ccccc12

- absorption maximum (in ClCCl): 382 nm
Compound: CCCCC(CC)COc1ccc2nc(-c3ccc(-c4cccs4)s3)sc2c1 (stereo not drawn)

- absorption maximum (in ClCCl): 420 nm
Compound: CCCCC(CC)Cn1c2cc(C#N)c(-c3ccc(N(c4ccccc4)c4ccccc4)cc3)cc2c2cc(-c3ccc(N(c4ccccc4)c4ccccc4)cc3)c(C#N)cc21 (stereo not drawn)

- absorption maximum (in ClCCl): 440 nm
Compound: CCN(CC)c1ccc2cc(-c3nc4cc(C(=O)Nc5cccc(C)c5)ccc4o3)c(=O)oc2c1

- absorption maximum (in ClCCl): 686 nm
Compound: COc1c2ccccc2c(OC)c2c(C#C[Si](C(C)C)(C(C)C)C(C)C)c3cc4ccccc4cc3c(C#C[Si](C(C)C)(C(C)C)C(C)C)c12

- absorption maximum (in C1CCOC1): 341 nm
Compound: CC(C)(C)c1ccc(C2=C(c3ccc(C(C)(C)C)cc3)[Si](c3ccccc3)(c3ccccc3)c3ccccc32)cc1

- absorption maximum (in ClCCl): 361 nm
Compound: CCOC(=O)c1c(-c2cc3c(ccc4ccccc43)oc2=O)nn(-c2cccc(C)c2)c1C(=O)OCC

- absorption maximum (in C1CCOC1): 495 nm
Compound: C[Si](C)(C)c1ccc(-c2ccc(-c3ccc(-c4ccc(-c5ccc([Si](C)(C)C)cc5)s4)c4nsnc34)s2)cc1

- absorption maximum (in ClC(Cl)Cl): 370 nm
Compound: CCCCCCN1C(=O)c2cccc3cc(/N=C\c4nc5ccccc5s4)cc(c23)C1=O

More lines, now with the values behind:

Compound: CC(C)(C)c1ccc2c(c1)c1cc(C(C)(C)C)ccc1n2-c1ccc(S(=O)(=O)c2cccc(S(=O)(=O)c3ccc(-n4c5ccc(C(C)(C)C)cc5c5cc(C(C)(C)C)ccc54)cc3)c2)cc1
- absorption maximum (in Cc1ccccc1): 348 nm

Compound: COc1ccc(-c2csc(-c3ccncc3)n2)cc1
- absorption maximum (in CC#N): 394 nm
- absorption maximum (in CCO): 340 nm
- absorption maximum (in CN(C)C=O): 340 nm
- absorption maximum (in CS(C)=O): 341 nm
- absorption maximum (in Cc1ccccc1): 340 nm
- absorption maximum (in ClCCl): 401 nm

Compound: CN(C)c1ccc(C#Cc2cc3ccc4cc(C#Cc5ccc(N(C)C)cc5)cc5ccc(c2)c3c45)cc1
- absorption maximum (in Cc1ccccc1): 421 nm

Compound: Cn1c2cc(N3CCCCC3)c(F)cc2c(=O)c2cc(F)c(N3CCCCC3)cc21
- absorption maximum (in CCO): 368 nm

Compound: COc1ccc2c(c1)c1ccccc1n2-c1nc2ccccc2nc1-n1c2ccccc2c2cc(OC)ccc21
- absorption maximum (in Cc1ccccc1): 423 nm

Compound: CCN(CC)c1ccc2cc(C#N)c(=O)oc2c1
- absorption maximum (in ClCCl): 428 nm

Compound: CCN1CCN(c2ccc(/N=N/c3ccc(C#N)cc3)cc2)CC1
- absorption maximum (in CCOC(C)=O): 428 nm

Compound: CN(C)c1ccc2cc(C3=[O+][B-](F)(F)OC(c4ccccc4)=C3)ccc2c1
- absorption maximum (in C1CCOC1): 492 nm
- absorption maximum (in CC#N): 503 nm
- absorption maximum (in CC(C)=O): 498 nm
- absorption maximum (in CS(C)=O): 520 nm
- absorption maximum (in Cc1ccccc1): 489 nm
- absorption maximum (in ClC(Cl)Cl): 500 nm
- absorption maximum (in ClCCl): 504 nm

Compound: CCOc1cc2c(cc1/C=C/C(=C(C#N)C#N)c1ccccc1)c1ccccc1n2CC
- absorption maximum (in C1CCOC1): 462 nm
- absorption maximum (in CC#N): 462 nm
- absorption maximum (in CCO): 468 nm
- absorption maximum (in CCOC(C)=O): 458 nm
- absorption maximum (in CN(C)C=O): 471 nm
- absorption maximum (in CS(C)=O): 476 nm
- absorption maximum (in Cc1ccccc1): 462 nm
- absorption maximum (in ClC(Cl)Cl): 470 nm
- absorption maximum (in ClCCl): 468 nm

Compound: c1ccc(N(c2ccccc2)c2c3ccccc3cc3ccccc23)cc1
- absorption maximum (in Cc1ccccc1): 428 nm

Compound: Cc1cc(C)c(B(c2ccccc2N(c2ccccc2)c2ccccc2)c2c(C)cc(C)cc2C)c(C)c1
- absorption maximum (in Cc1ccccc1): 415 nm

Compound: Cc1cccc(Nc2ccccc2C(=O)O)c1C
- absorption maximum (in CC#N): 351 nm
- absorption maximum (in CCOC(C)=O): 351 nm
- absorption maximum (in CO): 345 nm
- absorption maximum (in ClC(Cl)Cl): 357 nm

Compound: CN1C(=CC2=C([O-])C(=O)C2=C(C#N)C#N)C=Cc2ccccc21
- absorption maximum (in CCO): 515 nm

Compound: CCCCOC(=O)c1cc(Oc2ccc(C(C)(C)C)cc2)c2c3c(Cl)cc4c5c(cc(Cl)c(c6c(Oc7ccc(C(C)(C)C)cc7)cc(C(=O)OCCCC)c1c26)c53)C(=O)N(c1c(C(C)C)cccc1C(C)C)C4=O
- absorption maximum (in Cc1ccccc1): 529 nm

Compound: CCN(CC)c1ccc2cc(C#N)/c(=N\C(=O)c3ccco3)oc2c1
- absorption maximum (in CCO): 424 nm
- absorption maximum (in ClCCl): 430 nm

Compound: O=C1c2cc(-n3c4ccccc4c4ccccc43)c(-n3c4ccccc4c4ccccc43)cc2C(=O)N1c1ccccc1
- absorption maximum (in Cc1ccccc1): 388 nm

Compound: O=C(NCc1cc(=O)oc2cc(O)c(Br)cc12)c1cccnc1
- absorption maximum (in CC#N): 392 nm
- absorption maximum (in CO): 372 nm
- absorption maximum (in CS(C)=O): 408 nm
- absorption maximum (in O): 330 nm

Compound: CCCCCc1c(Oc2cc(O)cc(CCC(=O)CC)c2C(=O)OC)c(OC)cc(O)c1C(=O)O
- absorption maximum (in ClC(Cl)Cl): 312 nm

Compound: CCCCC1=Cc2c3ccc4cccc5ccc(c6cc(-c7ccc(N(c8ccccc8)c8ccccc8)cc7)n(c26)P1(=O)c1ccccc1)c3c45 (stereo not drawn)
- absorption maximum (in C1CCCCC1): 431 nm
- absorption maximum (in C1CCOC1): 432 nm
- absorption maximum (in C1COCCO1): 432 nm
- absorption maximum (in CC#N): 428 nm
- absorption maximum (in CC(C)=O): 429 nm
- absorption maximum (in CO): 428 nm
- absorption maximum (in Cc1ccccc1): 434 nm
- absorption maximum (in ClC(Cl)Cl): 433 nm
- absorption maximum (in ClCCl): 431 nm

Compound: Nc1cc(N)cc(-c2nc3ccccc3s2)c1
- absorption maximum (in C1CCCCC1): 360 nm
- absorption maximum (in C1COCCO1): 360 nm
- absorption maximum (in CC#N): 360 nm
- absorption maximum (in CC(C)O): 360 nm
- absorption maximum (in CCOC(C)=O): 360 nm
- absorption maximum (in CCOCC): 360 nm
- absorption maximum (in CO): 360 nm
- absorption maximum (in O): 360 nm

Compound: CCCCCCOc1cc(C=O)c(OCCCCCC)cc1C=O
- absorption maximum (in ClCCl): 403 nm
